Patent US7194978B2, “Inducing sterility in fish by disrupting the development of the GnRH system” (University of Maryland Biotechnology Institute, priority 2003, dated 2007)

Experiments:
[1] = test system: sbGnRH transcript levels; assay: sbGnRH transcript levels in seabream larvae after GABA immersion, quantitative RT-PCR; type: in vivo, gilthead seabream (Sparus aurata); settings: seabream larvae 3 days, 1 week, 2 weeks pf; immersion in GABA 10^−7 to 10^−3 M for 18 hours
Experimental: (§1) FIGS. 2A, B and C show the effect of GABA treatment on GnRH gene expression during development. Larvae were sampled 24 hours after overnight treatment at 3 days pf ( ? ), 1 week pf ( ? ) or 2 weeks pf ( ? ) and levels of GnRH transcript were measured by quantitative RT-PCR Values on the Y axis are expressed as copy number/20 ng total RNA. Values on the X axis range from 0 to 1 mM GABA. 100 ng total RNA was isolated from tissues using a modified acid-phenol extraction method (TRI REAGENT, MRC, Inc., Cincinnati, Ohio) and reverse transcribed into cDNA using random hexamers and MMLV reverse transcriptase. PCR was performed in 96-well plates on diluted cDNA templates using SYBR® Green PCR Core Reagent (PE Applied Biosystems, Foster City, Calif.) and the relevant GnRH primers. […] For each reaction, the Prism® 7700 generated an amplification plot of fluorescence signal versus cycle number, and CT (the fractional cycle number at which fluorescence passes a baseline threshold value) was determined (Fink et al., 1998). […] Quantitation of the amount of target in each sample was accomplished by comparing CT values of unknowns to standards to determine initial copy number. […]
(§2) Seabream. […] At 24 hours post-treatment, transcript levels for each of the 3 GnRHs in seabream were determined using real-time, fluorescence-based quantitative RT-PCR assays. […]

[2] = test system: forebrain (TN) GnRH neurons; assay: Developmental migration of GnRH neurons in zebrafish larvae, whole-mount ISH; type: in vivo, zebrafish (Danio rerio); settings: sampled at 7, 9, 10, 12 days pf
Description: Digoxigenin (DIG)-labeled complimentary RNA (cRNA) probe was synthesized from plasmid DNA, containing the seabream TN GnRH cDNA, using T7 RNA polymerase. The probe was hybridized to cellular TN GnRH mRNA in whole, fixed 3–22 days pf of larvae. The hybridized probe was then detected with anti-DIG antibody conjugated to alkaline phosphatase (Anti-DIG-AP), and the complex (mRNA:DIG-labeled cRNA:Anti-DIG-AP) was detected by an enzymatic reaction of AP with a chromogenic substrate, which forms a precipitating dark purple pigment. The procedure was performed according to a standard published protocol for whole-mount ISH (Westerfield et al., 1995). The age of the larvae are boxed on the top left of each photograph. TN GnRH-expressing cells are indicated by an arrow.
FIGS. 3A, B and C show the effect of GABA-ergic compounds on developmental migration of TN GnRH neurons in zebrafish. […] Note the extent of neuronal migration toward the brain seen in untreated fish, as compared to treated fish. Whole-mount ISH analysis was done as described in FIG. 1. Differential interference contrasting microscopy was used to visualize TN GnRH hybridization in deep tissue layers of the nasal placode. All panels at 200×.
Zebrafish. Zebrafish larvae 5–8 days post-fertilization (dpf) and 7–10 dpf were immersed in GABA (1 mM) or Muscimol (100 micromolar). […]

[3] = test system: zebrafish gonads; assay: Gonadal development in zebrafish, histological analysis of the gonads at 9 weeks; type: in vivo, zebrafish (Danio rerio); settings: histology after 9 weeks of growth
Experimental: FIGS. 4A. B and C show the effect of GABA-ergic compounds on gonadal development in zebrafish. Hematoxylineosin staining of gonadal tissues of 9-week old zebrafish exposed at 7–10 days pf to A) no treatment, B) 1 mM GABA and C) 100 μM Muscimol. Note greater degree of organization and more advanced gamete development in A), compared to B) and C). s: somatic cells; o: oogonia; v: oocytes in early stages of vitellogenesis; v*: vitellogenic oocytes with abnormal follicle development. A), C) at 200×; B) 400×.
Zebrafish. Zebrafish larvae 5–8 days post-fertilization (dpf) and 7–10 dpf were immersed in GABA (1 mM) or Muscimol (100 micromolar). Muscimol is a potent GABA agonist that acts specifically on GABAA receptor subtypes. Similar to the post-treatment assays conducted on seabream larvae, zebrafish tissue samples (n=12) were collected at 7, 9, 10, and 12 days pf and also after 9 weeks of growth for detection/analysis of GnRH neuron development and histological analysis of the gonads. […] Confirmation is made to determine the effectiveness of the treatment prior to sexual maturation (or lack thereof).
Zebrafish larvae were immersed in GABA (1 mM) or Muscimol (100 micromolar) at 5–8 days pf and 7–10 days pf. (Muscimol is a potent GABA agonist that acts specifically on GABAA receptor subtypes). Samples (n=12) were collected at 7, 9, 10, and 12 day pf for subsequent detection of GnRH neurons. […]

[4] = test system: sGnRH gene expression; assay: sGnRH transcript levels in seabream larvae after GABA immersion, quantitative RT-PCR; type: in vivo, gilthead seabream (Sparus aurata); settings: immersion in GABA 10^−7 to 10^−3 M for 18 hours, sampled 24 hours after treatment
Experimental: FIGS. 2A, B and C show the effect of GABA treatment on GnRH gene expression during development. Larvae were sampled 24 hours after overnight treatment at 3 days pf ( ? ), 1 week pf ( ? ) or 2 weeks pf ( ? ) and levels of GnRH transcript were measured by quantitative RT-PCR Values on the Y axis are expressed as copy number/20 ng total RNA. Values on the X axis range from 0 to 1 mM GABA. 100 ng total RNA was isolated from tissues using a modified acid-phenol extraction method (TRI REAGENT, MRC, Inc., Cincinnati, Ohio) and reverse transcribed into cDNA using random hexamers and MMLV reverse transcriptase. PCR was performed in 96-well plates on diluted cDNA templates using SYBR® Green PCR Core Reagent (PE Applied Biosystems, Foster City, Calif.) and the relevant GnRH primers. Primers were designed to span intron/exon boundaries in order to avoid amplification of genomic DNA. Amplification reactions were carried out using the ABI Prism® 7700 Sequence Detection System (PE Applied Biosystems), which consists of a built-in thermalcycler, laser irradiation and CCD detector system, and software analysis package. For each reaction, the Prism® 7700 generated an amplification plot of fluorescence signal versus cycle number, and CT (the fractional cycle number at which fluorescence passes a baseline threshold value) was determined (Fink et al., 1998). […] Quantitation of the amount of target in each sample was accomplished by comparing CT values of unknowns to standards to determine initial copy number. […]
as §2
Seabream larvae at 3 days, 1 week and 2 weeks pf were immersed in various concentrations of GABA (10^−7 to 10^−3 M) for a period of 18 hours (200 larvae per treatment). Larvae were collected 24 hours after the treatments and transcript levels for each of the 3 GnRHs were determined using real-time, fluorescence-based quantitative RT-PCR assays.

[5] = test system: cGnRH-II expression; assay: cGnRH-II transcript levels in seabream larvae after GABA immersion, quantitative RT-PCR; type: in vivo, gilthead seabream (Sparus aurata); settings: 2-week-old seabream larvae; immersion in GABA 10^−7 to 10^−3 M for 18 hours; sampled 24 hours after treatment
Experimental: as §1, §2

[6] = zebrafish larvae immersed in 1 mM GABA at 5–8 dpf and 7–10 dpf
[7] = zebrafish larvae immersed in 100 micromolar Muscimol at 5–8 dpf and 7–10 dpf

SMILES	sbGnRH transcript levels [1]	migration of the GnRH neurons [2, 6]	gonadal development [3, 6]	sGnRH gene expression ([4]; 1-week-old seabream larvae)	sGnRH gene expression ([4]; 2-week-old seabream larvae)	sGnRH gene expression ([4]; 3-day-old seabream larvae)	cGnRH-II expression [5]	migration of the GnRH neurons [2, 7]	gonadal development [3, 7]
NCCCC(=O)O [GABA, Gamma-aminobutyric acid]	no definitive effect seen	clearly inhibited	clearly inhibited	dose-dependent decrease	no effect	no effect	slight increase		
NCc1cc(=O)[nH]o1 [Muscimol]								clearly inhibited	clearly inhibited
